According to patent US12679878B2, “CRF2 receptor agonists and their use in therapy” (SANOFI, priority 2020, dated 2026):
Read-outs that look alike come from different tables or passages of the source. Starred links: 1 amine or outer side, 2 acyl side, 3 side chain; linkers in the order of their positions; H or OH if unused. Non-standard residues stand in square brackets, D forms with d. Residues, ends and D or L forms follow the SMILES beside them. Groups on a side chain read outwards from the residue. *: point of attachment. C20 diacid = O=C(O)CCCCCCCCCCCCCCCCCCC(=O)*; C18 diacid = O=C(O)CCCCCCCCCCCCCCCCC(=O)*; γGlu = O=C(O)[C@H](CCC(=O)[*:2])N[*:1]; AEEA = NCCOCCOCC(=O)O; Aib = CC(C)(N)C(=O)O

Experiments:
Format in all cases: cell-based
human CRF2α receptor = target: T1, human CRF2α receptor (Homo sapiens, UniProt Q13324); test: cAMP agonism at human CRF2 α receptor in TeloHEAC cells (Example 7); conditions: cAMP HTRF, TeloHEAC cells stably expressing human CRF2 α
T1 construct: expressed in transfected cells; host or cells: TeloHEAC
T1 sequence (Q13324 1-411): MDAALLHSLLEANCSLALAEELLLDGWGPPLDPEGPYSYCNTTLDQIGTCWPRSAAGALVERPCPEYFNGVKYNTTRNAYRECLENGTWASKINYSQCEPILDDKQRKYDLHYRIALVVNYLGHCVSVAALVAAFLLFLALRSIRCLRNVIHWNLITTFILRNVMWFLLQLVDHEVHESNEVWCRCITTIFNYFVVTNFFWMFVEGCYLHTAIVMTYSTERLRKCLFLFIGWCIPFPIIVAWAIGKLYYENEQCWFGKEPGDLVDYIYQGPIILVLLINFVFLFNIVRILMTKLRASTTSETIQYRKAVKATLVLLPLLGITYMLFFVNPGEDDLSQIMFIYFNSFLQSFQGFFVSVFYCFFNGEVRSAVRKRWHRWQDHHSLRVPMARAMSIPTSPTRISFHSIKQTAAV
Method in brief: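 Thawed frozen stably transfected cells in HBSS/20 mM HEPES (0% or 0.1% HSA) plus 2 mM IBMX were exposed to compound at 2000 cells/well for 30 min at room temperature. Intracellular cAMP was read by HTRF (665/620 nm ratio) after 1 h lysis; EC50 was derived with 1000 nM urocortin 2 set as 100%.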

rat CRF2R α receptor = test: cAMP agonism at rat CRF2R α receptor in A7R5 rat aortic smooth muscle cells (Example 8); conditions: cAMP HTRF, A7R5 rat aortic smooth muscle cell line, 0% HSA
Method in brief: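 Potency (EC50) is the concentration reaching half-maximal activation, with responses scaled so that 1000 nM urocortin 2 equals 100%. Intracellular cAMP was quantified by homogeneous time-resolved fluorescence at 665/620 nm, 1 h after lysis-buffer reagents. Compound stimulation lasted 30 min at room temperature on 2000 IBMX-treated (2 mM) cells per well in HEPES-buffered HBSS.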

CRF1R receptor = target: T2, CRF1R receptor (Homo sapiens, UniProt P34998); test: cAMP activity at anti-target CRF1R, CRF1R-overexpression CHO cell line (Example 9); conditions: for EC50: 0% HSA
T2 construct: host or cells: CHO-K1 clone 2
T2 sequence (P34998 24-415): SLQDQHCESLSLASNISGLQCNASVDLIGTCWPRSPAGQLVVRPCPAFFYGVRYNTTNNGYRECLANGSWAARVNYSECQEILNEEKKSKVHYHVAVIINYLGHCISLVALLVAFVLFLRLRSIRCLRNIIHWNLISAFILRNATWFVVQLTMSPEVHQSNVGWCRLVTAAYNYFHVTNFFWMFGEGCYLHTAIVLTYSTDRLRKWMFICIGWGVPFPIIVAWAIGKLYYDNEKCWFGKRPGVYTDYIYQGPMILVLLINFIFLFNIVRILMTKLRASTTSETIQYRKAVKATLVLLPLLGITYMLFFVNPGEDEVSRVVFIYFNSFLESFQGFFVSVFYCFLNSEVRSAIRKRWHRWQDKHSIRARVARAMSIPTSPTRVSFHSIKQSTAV
Method in brief: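 Using thawed CRF1R-overexpressing CHO cells at 2000 per well, compound is applied for 30 min at RT in HBSS/HEPES buffer with IBMX. Cellular cAMP content is determined via HTRF, and percent activity is calculated against 1000 nM UCN2 defined as 100%.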

[1] = 0% HSA, read-out: EC50 [nM], 0% HSA
[2] = CRF1R-overexpression CHO cell line
[3] = CRF1R-overexpression CHO cell line, read-out: Emax (%)
[4] = 0.1% HSA, read-out: EC50 [nM], 0.1% HSA

Structure (SMILES) | EC50 (human CRF2α receptor; [1]) | EC50 (rat CRF2R α receptor) | EC50 (CRF1R receptor; [2]) | Emax (CRF1R receptor; [3]) | EC50 (human CRF2α receptor; [4]) | Emax (CRF1R receptor; CHO)
CC[C@H](C)[C@H](N)C(=O)N[C@H](C(=O)N[C@@H](CC(C)C)C(=O)N[C@@H](CO)C(=O)N[C@@H](CC(C)C)C(=O)N[C@@H](CC(=O)O)C(=O)N[C@H](C(=O)N1CCC[C@H]1C(=O)N[C@H](C(=O)N[C@@H](CCCCN)C(=O)N[C@@H](CC(C)C)C(=O)N[C@@H](CCCCNC(=O)COCCOCCNC(=O)COCCOCCNC(=O)CC[C@H](NC(=O)CCCCCCCCCCCCCCCCC(=O)O)C(=O)O)C(=O)N[C@@H](CCC(N)=O)C(=O)N[C@H](C(=O)N[C@@H](CC(C)C)C(=O)N[C@@H](CC(C)C)C(=O)N[C@@H](CCC(=O)O)C(=O)N[C@@H](CCC(N)=O)C(=O)N[C@@H](C)C(=O)N[C@@H](CCCCN)C(=O)N[C@@H](CCC(N)=O)C(=O)N[C@@H](CCCCN)C(=O)NC(C)(C)C(=O)N[C@@H](CC(C)C)C(=O)N[C@@H](CCCNC(=N)N)C(=O)N[C@@H](C)C(=O)N[C@@H](CCC(N)=O)C(=O)N[C@@H](C)C(=O)N[C@@H](CCC(=O)O)C(=O)N[C@H](C(=O)N[C@@H](CC(N)=O)C(=O)N[C@H](C(=O)N[C@@H](CCCNC(=N)N)C(=O)N[C@H](C(=O)N[C@@H](CC(C)C)C(=O)N[C@@H](CCC(=O)O)C(=O)N[C@@H](CCCNC(=N)N)C(=O)N[C@H](C(N)=O)C(C)C)[C@@H](C)CC)C(C)C)[C@@H](C)O)[C@@H](C)CC)[C@@H](C)CC)C(C)C)C(C)C [compound 46] (H-IVLSLDVPIKLK([AEEA-AEEA-γGlu-C18 diacid])QILLEQAKQK[Aib]LRAQAETNVRILERV-NH2; N-terminus assumed) | 0.52 nM | 8.97 nM | > 1000 nM | 5.88% |  | 
CC[C@H](C)[C@H](NC(=O)[C@H](CCC(N)=O)NC(=O)[C@H](CCCCNC(=O)COCCOCCNC(=O)COCCOCCNC(=O)CC[C@H](NC(=O)CCCCCCCCCCCCCCCCC(=O)O)C(=O)O)NC(=O)[C@@H](NC(=O)[C@H](CCCCN)NC(=O)[C@@H](NC(=O)[C@@H]1CCCN1C(=O)[C@@H](NC(=O)[C@H](CC(=O)O)NC(=O)[C@H](CC(C)C)NC(=O)[C@H](CO)NC(=O)[C@H](CC(C)C)NC(=O)[C@@H](NC(=O)[C@@H](N)Cc1ccccc1)[C@@H](C)O)C(C)C)[C@@H](C)O)[C@@H](C)CC)C(=O)N[C@@H](CC(C)C)C(=O)N[C@@H](CC(C)C)C(=O)N[C@@H](CCCCN)C(=O)N[C@@H](CCC(N)=O)C(=O)N[C@@H](CCC(N)=O)C(=O)N[C@@H](CCCCN)C(=O)N[C@@H](CCC(N)=O)C(=O)N[C@@H](CCCCN)C(=O)N[C@@H](CCCCN)C(=O)N[C@@H](CCC(=O)O)C(=O)N[C@@H](CCCNC(=N)N)C(=O)N[C@@H](CCC(N)=O)C(=O)N[C@@H](CCC(N)=O)C(=O)N[C@@H](C)C(=O)N[C@@H](CCC(=O)O)C(=O)N[C@@H](CCCCN)C(=O)N[C@@H](CC(N)=O)C(=O)N[C@@H](CCCCN)C(=O)N[C@@H](CCC(N)=O)C(=O)N[C@@H](CC(C)C)C(=O)N[C@@H](CC(C)C)C(=O)N[C@@H](CCC(=O)O)C(=O)N[C@@H](CCCNC(=N)N)C(=O)N[C@H](C(N)=O)C(C)C [compound 52] (H-FTLSLDVPTKIK([AEEA-AEEA-γGlu-C18 diacid])QILLKQQKQKKERQQAEKNKQLLERV-NH2; N-terminus assumed) | 0.7 nM | 0.76 nM | > 1000 nM | 5.3% | 45.8 nM | 
CC[C@H](C)[C@H](NC(=O)[C@H](CCC(N)=O)NC(=O)[C@H](CCCCNC(=O)COCCOCCNC(=O)COCCOCCNC(=O)CC[C@H](NC(=O)CCCCCCCCCCCCCCCCC(=O)O)C(=O)O)NC(=O)[C@@H](NC(=O)[C@H](CCCCN)NC(=O)[C@@H](NC(=O)[C@@H]1CCCN1C(=O)[C@@H](NC(=O)[C@H](CC(=O)O)NC(=O)[C@H](CC(C)C)NC(=O)[C@H](CO)NC(=O)[C@H](CC(C)C)NC(=O)[C@@H](NC(=O)[C@@H](N)Cc1ccccc1)[C@@H](C)O)C(C)C)[C@@H](C)O)[C@@H](C)CC)C(=O)N[C@@H](CC(C)C)C(=O)N[C@@H](CC(C)C)C(=O)N[C@@H](CCCCN)C(=O)N[C@@H](CCC(N)=O)C(=O)N[C@@H](CCC(N)=O)C(=O)N[C@@H](CCCCN)C(=O)N[C@@H](CCC(N)=O)C(=O)N[C@@H](CCCCN)C(=O)N[C@@H](CCCCN)C(=O)N[C@@H](CCC(=O)O)C(=O)N[C@@H](CCCNC(=N)N)C(=O)N[C@@H](CCC(N)=O)C(=O)N[C@@H](CCC(N)=O)C(=O)N[C@@H](C)C(=O)N[C@@H](CCC(=O)O)C(=O)N[C@H](C(=O)N[C@@H](CC(N)=O)C(=O)N[C@@H](CCCCN)C(=O)N[C@@H](CCC(N)=O)C(=O)N[C@@H](CC(C)C)C(=O)N[C@@H](CC(C)C)C(=O)N[C@@H](CCC(=O)O)C(=O)N[C@@H](CCCNC(=N)N)C(=O)N[C@H](C(N)=O)C(C)C)[C@@H](C)O [compound 53] (H-FTLSLDVPTKIK([AEEA-AEEA-γGlu-C18 diacid])QILLKQQKQKKERQQAETNKQLLERV-NH2) | 1.01 nM | 1.32 nM | > 1000 nM | 4.14% | 55.1 nM | 
CC[C@H](C)[C@H](NC(=O)[C@H](CCC(N)=O)NC(=O)[C@H](CCCCNC(=O)COCCOCCNC(=O)COCCOCCNC(=O)CC[C@H](NC(=O)CCCCCCCCCCCCCCCCC(=O)O)C(=O)O)NC(=O)[C@H](CC(C)C)NC(=O)[C@H](CCCCN)NC(=O)[C@@H](NC(=O)[C@@H]1CCCN1C(=O)[C@@H](NC(=O)[C@H](CC(=O)O)NC(=O)[C@H](CC(C)C)NC(=O)[C@H](CO)NC(=O)[C@H](CC(C)C)NC(=O)[C@@H](NC(=O)[C@@H](N)Cc1ccccc1)[C@@H](C)O)C(C)C)[C@@H](C)CC)C(=O)N[C@@H](CC(C)C)C(=O)N[C@@H](CC(C)C)C(=O)N[C@@H](CCCCN)C(=O)N[C@@H](CCC(N)=O)C(=O)N[C@@H](CCC(N)=O)C(=O)N[C@@H](CCCCN)C(=O)N[C@@H](CCC(N)=O)C(=O)N[C@@H](CCCCN)C(=O)N[C@@H](CCCCN)C(=O)N[C@@H](CCC(=O)O)C(=O)N[C@@H](CCCNC(=N)N)C(=O)N[C@@H](CCC(N)=O)C(=O)N[C@@H](CCC(N)=O)C(=O)N[C@@H](C)C(=O)N[C@@H](CCC(=O)O)C(=O)N[C@H](C(=O)N[C@@H](CC(N)=O)C(=O)N[C@H](C(=O)N[C@@H](CCC(N)=O)C(=O)N[C@@H](CC(C)C)C(=O)N[C@@H](CC(C)C)C(=O)N[C@@H](CCC(=O)O)C(=O)N[C@@H](CCCNC(=N)N)C(=O)N[C@H](C(N)=O)C(C)C)C(C)C)[C@@H](C)O [compound 54] (H-FTLSLDVPIKLK([AEEA-AEEA-γGlu-C18 diacid])QILLKQQKQKKERQQAETNVQLLERV-NH2) | 0.57 nM | 1.51 nM |  |  | 24.5 nM | 2.72%
CC[C@H](C)[C@H](NC(=O)[C@H](CCC(N)=O)NC(=O)[C@H](CCCCNC(=O)COCCOCCNC(=O)COCCOCCNC(=O)CC[C@H](NC(=O)CCCCCCCCCCCCCCCCCCC(=O)O)C(=O)O)NC(=O)[C@H](CC(C)C)NC(=O)[C@H](CCCCN)NC(=O)[C@@H](NC(=O)[C@@H]1CCCN1C(=O)[C@@H](NC(=O)[C@H](CC(=O)O)NC(=O)[C@H](CC(C)C)NC(=O)[C@H](CO)NC(=O)[C@H](CC(C)C)NC(=O)[C@@H](NC(=O)[C@@H](N)Cc1ccccc1)[C@@H](C)O)C(C)C)[C@@H](C)CC)C(=O)N[C@@H](CC(C)C)C(=O)N[C@@H](CC(C)C)C(=O)N[C@@H](CCCCN)C(=O)N[C@@H](CCC(N)=O)C(=O)N[C@@H](CCC(N)=O)C(=O)N[C@@H](CCCCN)C(=O)N[C@@H](CCC(N)=O)C(=O)N[C@@H](CCCCN)C(=O)N[C@@H](CCCCN)C(=O)N[C@@H](CCC(=O)O)C(=O)N[C@@H](CCCNC(=N)N)C(=O)N[C@@H](CCC(N)=O)C(=O)N[C@@H](CCC(N)=O)C(=O)N[C@@H](C)C(=O)N[C@@H](CCC(=O)O)C(=O)N[C@H](C(=O)N[C@@H](CC(N)=O)C(=O)N[C@H](C(=O)N[C@@H](CCC(N)=O)C(=O)N[C@@H](CC(C)C)C(=O)N[C@@H](CC(C)C)C(=O)N[C@@H](CCC(=O)O)C(=O)N[C@@H](CCCNC(=N)N)C(=O)N[C@H](C(N)=O)C(C)C)C(C)C)[C@@H](C)O [compound 62] (H-FTLSLDVPIKLK([AEEA-AEEA-γGlu-C20 diacid])QILLKQQKQKKERQQAETNVQLLERV-NH2) | 0.8 nM | 2.9 nM |  |  |  | 2.28%
